Results reported in US11339130B1 (Blade Therapeutics, Inc., priority 2016, dated 2022).
Where two headings read alike, the source gives them in different places.

How the values were obtained:
[1] = tested on: Calpain activity in SH-SY5Y cells (SBDP-150); assay: SH-SY5Y Spectrin western blot assay (SBDP-150 breakdown product, A23187-induced); assay type: cell-based; details: Homo sapiens, SH-SY5Y cells, read-out: SH-SY5Y Spectrin IC50
[2] = molecular target: T1, Human Calpain 1/NS1 (Homo sapiens, UniProt P07384); assay: Calpain inhibition continuous fluorescence (FRET) assay, Human Calpain 1/NS1; assay type: biochemical; details: read-out: Human Calpain 1/NS1 IC50
T1 sequence (P07384 1-714): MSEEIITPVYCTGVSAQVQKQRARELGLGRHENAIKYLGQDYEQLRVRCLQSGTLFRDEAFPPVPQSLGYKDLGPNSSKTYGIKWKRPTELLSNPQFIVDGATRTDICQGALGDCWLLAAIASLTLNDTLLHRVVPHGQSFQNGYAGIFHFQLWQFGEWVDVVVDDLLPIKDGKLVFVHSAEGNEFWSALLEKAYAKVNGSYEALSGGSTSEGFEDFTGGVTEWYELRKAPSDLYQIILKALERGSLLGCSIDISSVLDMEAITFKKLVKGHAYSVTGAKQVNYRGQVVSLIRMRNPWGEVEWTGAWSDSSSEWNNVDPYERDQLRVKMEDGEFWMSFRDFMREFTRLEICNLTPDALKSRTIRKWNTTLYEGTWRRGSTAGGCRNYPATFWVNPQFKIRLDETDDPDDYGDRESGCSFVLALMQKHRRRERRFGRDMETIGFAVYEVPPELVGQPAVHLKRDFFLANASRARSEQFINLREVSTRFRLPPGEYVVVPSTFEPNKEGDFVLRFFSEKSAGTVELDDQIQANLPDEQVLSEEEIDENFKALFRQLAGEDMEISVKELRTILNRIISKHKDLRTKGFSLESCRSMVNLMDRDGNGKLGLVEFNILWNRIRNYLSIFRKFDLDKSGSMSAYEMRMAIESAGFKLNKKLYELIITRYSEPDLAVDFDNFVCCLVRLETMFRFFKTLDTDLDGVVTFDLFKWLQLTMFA
T1 sequence (P04632 1-268 partner): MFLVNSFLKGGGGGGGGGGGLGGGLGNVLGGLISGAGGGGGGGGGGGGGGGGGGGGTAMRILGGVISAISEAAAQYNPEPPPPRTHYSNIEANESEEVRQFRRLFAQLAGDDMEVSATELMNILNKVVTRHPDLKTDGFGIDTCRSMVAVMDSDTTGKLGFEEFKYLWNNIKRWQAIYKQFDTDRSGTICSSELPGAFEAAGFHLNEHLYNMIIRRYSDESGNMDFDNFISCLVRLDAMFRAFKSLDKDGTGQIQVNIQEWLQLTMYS
Summary of the method: (§1)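 Human calpains 1, 2 and 9 preincubated with inhibitor at 25 °C in 50 mM Tris pH 7.5, 100 mM NaCl, 1 mM DTT; reaction started with 5-FAM/QXL 520 FRET peptide plus CaCl2 for activation. Fluorescence (490/520 nm) followed 10 min; rates from 1-5 min slopes fitted to 4-parameter logistic for IC50.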

[3] = molecular target: T2, Human Calpain 2/NS1 (Homo sapiens, UniProt P17655); assay: Calpain inhibition continuous fluorescence (FRET) assay, Human Calpain 2/NS1; assay type: biochemical; details: read-out: Human Calpain 2/NS1 IC50
T2 sequence (P17655 1-700): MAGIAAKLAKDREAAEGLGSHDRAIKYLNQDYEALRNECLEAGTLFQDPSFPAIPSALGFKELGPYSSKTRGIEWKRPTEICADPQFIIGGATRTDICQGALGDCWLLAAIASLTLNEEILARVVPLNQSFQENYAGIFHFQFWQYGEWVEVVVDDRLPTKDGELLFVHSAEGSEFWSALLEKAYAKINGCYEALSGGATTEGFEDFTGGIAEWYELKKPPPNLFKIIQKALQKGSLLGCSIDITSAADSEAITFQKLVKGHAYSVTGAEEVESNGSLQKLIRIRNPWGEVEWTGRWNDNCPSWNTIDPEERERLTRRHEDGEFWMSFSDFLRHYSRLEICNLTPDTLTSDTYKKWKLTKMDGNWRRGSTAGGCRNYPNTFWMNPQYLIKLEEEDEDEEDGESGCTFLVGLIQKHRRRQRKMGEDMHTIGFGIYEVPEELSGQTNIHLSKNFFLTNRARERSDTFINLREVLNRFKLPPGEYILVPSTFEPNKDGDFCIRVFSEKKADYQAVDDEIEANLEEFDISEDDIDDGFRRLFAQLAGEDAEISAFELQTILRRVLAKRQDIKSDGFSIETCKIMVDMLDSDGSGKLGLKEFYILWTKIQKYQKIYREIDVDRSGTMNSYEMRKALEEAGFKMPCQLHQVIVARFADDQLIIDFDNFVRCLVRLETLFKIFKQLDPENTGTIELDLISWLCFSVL
T2 sequence (P04632 1-268 partner): T1 sequence (P04632 1-268 partner)
Summary of the method: as §1

[4] = molecular target: T3, Human Calpain 9/NS1 (Homo sapiens, UniProt O14815); assay: Calpain inhibition continuous fluorescence (FRET) assay, Human Calpain 9/NS1; assay type: biochemical; details: read-out: Human Calpain 9/NS1 IC50
T3 sequence (O14815 1-690): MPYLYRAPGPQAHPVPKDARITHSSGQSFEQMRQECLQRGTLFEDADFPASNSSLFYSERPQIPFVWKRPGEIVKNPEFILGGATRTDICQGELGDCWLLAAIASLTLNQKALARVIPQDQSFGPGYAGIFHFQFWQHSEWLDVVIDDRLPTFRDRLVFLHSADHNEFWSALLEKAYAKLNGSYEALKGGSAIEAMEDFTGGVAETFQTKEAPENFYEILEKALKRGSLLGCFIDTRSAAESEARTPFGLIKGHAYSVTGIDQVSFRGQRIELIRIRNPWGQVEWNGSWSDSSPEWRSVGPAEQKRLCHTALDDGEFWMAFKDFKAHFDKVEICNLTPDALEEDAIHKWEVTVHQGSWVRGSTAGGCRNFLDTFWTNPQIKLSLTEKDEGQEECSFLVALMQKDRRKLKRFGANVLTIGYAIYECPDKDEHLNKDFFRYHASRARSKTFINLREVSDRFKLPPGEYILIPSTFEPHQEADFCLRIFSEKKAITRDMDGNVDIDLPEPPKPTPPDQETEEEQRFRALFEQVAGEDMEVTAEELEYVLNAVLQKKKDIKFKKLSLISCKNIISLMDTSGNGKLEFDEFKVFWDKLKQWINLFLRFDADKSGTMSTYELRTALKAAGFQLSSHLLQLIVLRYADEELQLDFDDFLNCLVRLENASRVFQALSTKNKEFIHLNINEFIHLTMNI
T3 sequence (P04632 1-268 partner): T1 sequence (P04632 1-268 partner)
Summary of the method: as §1

[5] = tested on: Calpain activity in SH-SY5Y cells; assay: SH-SY5Y + AMC fluorescence assay (Suc-LLVY-AMC substrate); assay type: cell-based; details: read-out: SH-SY5Y + AMC IC50
[6] = A23187-induced SBDP-150, western blot
[7] = Column D, A23187-induced SBDP-150

| Structure (SMILES) | IC50 [1, 6] [µM] | IC50 [2] [µM] | IC50 [3] [µM] | IC50 [4] [µM] | IC50 [5] [µM] | IC50 [1, 7] [µM] | IC50 ([2]; Column A) [µM] | IC50 ([3]; Column B) [µM] | IC50 ([4]; Column C) [µM] | IC50 ([5]; Column E) [µM] |
| --- | --- | --- | --- | --- | --- | --- | --- | --- | --- | --- |
| Cc1cc(C)cc(C[C@H](NC(=O)c2cn(C)nc2-c2ccccc2)C(=O)C(N)=O)c1 [Compound 331] | < 10 | < 3 | < 3 | < 3 | > 25 |  |  |  |  |  |
| CCOCc1ccc(-n2nc(C)cc2C(=O)N[C@@H](Cc2ccccc2)C(=O)C(N)=O)cc1 [Compound 227, (S)—N-(4-amino-3,4-dioxo-1-phenylbutan-2-yl)-1-(4-(ethoxymethyl)phenyl)-3-methyl-1H-pyrazole-5-carboxamide] |  |  |  |  |  | < 10 | < 3 | < 3 | < 3 | > 25 |
| NC(=O)C(=O)[C@H](Cc1ccccc1)NC(=O)c1conc1-c1ccccc1F [Compound 277, (S)—N-(4-amino-3,4-dioxo-1-phenylbutan-2-yl)-3-(2-fluorophenyl)isoxazole-4-carboxamide] |  |  |  |  |  | 10 to 25 | < 3 | < 3 | < 3 | < 10 |
| CCn1cc(C(=O)NC(Cc2ccccc2)C(=O)C(N)=O)c(-c2cccc(F)c2)n1 (centres unmarked) [Compound 470, N-(4-amino-3,4-dioxo-1-phenylbutan-2-yl)-1-ethyl-3-(3-fluorophenyl)-1H-pyrazole-4-carboxamide] | 10 to 25 | < 3 | < 3 |  | < 10 |  |  |  |  |  |
| NC(=O)C(=O)[C@H](Cc1ccccc1)NC(=O)c1cn(C(F)F)nc1-c1ccccc1 [Compound 379, (S)—N-(4-amino-3,4-dioxo-1-phenylbutan-2-yl)-1-(difluoromethyl)-3-phenyl-1H-pyrazole-4-carboxamide] | < 10 | < 3 |  | < 3 | < 10 |  |  |  |  |  |
| Cc1nc(-c2cccc(F)c2)c(C(=O)N[C@@H](Cc2ccccc2)C(=O)C(N)=O)o1 [Compound 254, (S)—N-(4-amino-3,4-dioxo-1-phenylbutan-2-yl)-4-(3-fluorophenyl)-2-methyloxazole-5-carboxamide] |  |  |  |  |  | 10 to 25 | < 3 |  | < 3 | < 10 |
| Cn1cc(C(=O)N[C@@H](Cc2ccccc2)C(=O)C(=O)NCCNC(=O)OC(C)(C)C)c(-c2ccccc2)n1 [Compound 340, Tert-butyl (S)-(2-(3-(1-methyl-3-phenyl-1H-pyrazole-4-carboxamido)-2-oxo-4-phenylbutanamido)ethyl)carbamate] | > 25 | < 3 | < 3 | < 3 |  |  |  |  |  |  |
| NC(=O)C(=O)C(Cc1ccccc1)NC(=O)c1nsnc1Cl (centres unmarked) [Compound 364, N-(4-amino-3,4-dioxo-1-phenylbutan-2-yl)-4-chloro-1,2,5-thiadiazole-3-carboxamide] | 10 to 25 | < 3 | < 3 | < 3 |  |  |  |  |  |  |
| NC(=O)C(=O)C(Cc1ccccc1)NC(=O)c1cn(C(F)F)nc1-c1cc(F)cc(F)c1 (centres unmarked) [Compound 523, N-(4-amino-3,4-dioxo-1-phenylbutan-2-yl)-1-(difluoromethyl)-3-(3,5-difluorophenyl)-1H-pyrazole-4-carboxamide] | 10 to 25 | < 3 |  |  | < 10 |  |  |  |  |  |
| Cn1cc(C(=O)NC(Cc2ccccc2)C(=O)C(N)=O)c(-c2ccc(C#N)nc2)n1 (centres unmarked) [Compound 481, N-(4-amino-3,4-dioxo-1-phenylbutan-2-yl)-3-(6-cyanopyridin-3-yl)-1-methyl-1H-pyrazole-4-carboxamide] | > 25 | < 3 | < 3 | < 3 |  |  |  |  |  |  |
| Cc1cccnc1-n1nc(C(=O)NC(Cc2ccccc2)C(=O)C(N)=O)cc1C (centres unmarked) [Compound 346, N-(4-amino-3,4-dioxo-1-phenylbutan-2-yl)-5-methyl-1-(3-methylpyridin-2-yl)-1H-pyrazole-3-carboxamide] | > 25 | > 10 | 3 to 10 | 3 to 10 |  |  |  |  |  |  |
| Cc1cc(C(=O)N[C@@H](Cc2ccccc2)C(=O)C(N)=O)n(-c2nc3ccccc3s2)n1 [Compound 13, (S)—N-(4-amino-3,4-dioxo-1-phenylbutan-2-yl)-1-(benzo[D]thiazol-2-yl)-3-methyl-1H-pyrazole-5-carboxamide] |  |  |  |  |  | > 25 | < 3 | < 3 | < 3 |  |
| NC(=O)C(=O)[C@H](Cc1ccccc1)NC(=O)c1nccn1-c1ccccc1 [Compound 221, (S)—N-(4-amino-3,4-dioxo-1-phenylbutan-2-yl)-1-phenyl-1H-imidazole-2-carboxamide] |  |  |  |  |  | > 25 | < 3 | < 3 | < 3 |  |
| Cc1cc(C(=O)NC(Cc2ccccc2)C(=O)C(N)=O)n(-c2ncccc2C)n1 (centres unmarked) [Compound 345, N-(4-amino-3,4-dioxo-1-phenylbutan-2-yl)-3-methyl-1-(3-methylpyridin-2-yl)-1H-pyrazole-5-carboxamide] | > 25 | > 10 | > 10 | > 10 |  |  |  |  |  |  |
| Cn1cc(C(=O)NC(Cc2ccccc2)C(=O)C(N)=O)c(-c2ccnc3ccccc23)n1 (centres unmarked) [Compound 611, N-(4-amino-3,4-dioxo-1-phenylbutan-2-yl)-1-methyl-3-(quinolin-4-yl)-1H-pyrazole-4-carboxamide] | 10 to 25 | < 3 | < 3 | < 3 |  |  |  |  |  |  |
| NC(=O)C(=O)C(Cc1ccccc1)NC(=O)c1nsnc1-c1ccc2c(c1)OC(F)(F)O2 (centres unmarked) [Compound 599, N-(4-amino-3,4-dioxo-1-phenylbutan-2-yl)-4-(2,2-difluorobenzo[d][1,3]dioxol-5-yl)-1,2,5-thiadiazole-3-carboxamide] | > 25 |  |  | < 3 | > 25 |  |  |  |  |  |
